Where two headings read alike, the source gives them in different places.
How the values were obtained:
[1] = tested on: isolated atria (β-adrenergic receptors); assay: Contractility of isolated atria, species not distinguished; assay type: cell-based, rat or guinea pig
Protocol: For the tests atrial preparations were obtained by excising hearts from 200-250 g male Wistar rats or 300-400 g male Hartley guinea pigs. All of the animals were pretreated with reserpine (5 mg/kg) administered interperitoneally 15-18 hours before the animals were killed by a blow to the back of the neck. Left atria were maintained at 30° C. […] The buffer was vigorously bubbled with 95% O2 -5% CO2. Atria hooked to platinum-iridium electrodes were stimulated at 1 second intervals with 10 msec monophasic pulses at twice the threshold voltage for contractions. Developed tension was recorded on Beckman oscillographic recorders (Dynographs) and the signals processed by a DEC LSI-11 microcomputer. […] The inhibition is time and dose dependent. […] The cumulative dose response curves to (-)-isoproterenol were determined (n=2-3). At the termination of each experiment, maximum tension was determined by exposing atria to 100 μM isobutylmethylxanthine. […] The degree of inhibition was similar to that observed in glioma cells. […] (2) Efficacy was also assessed by using the phosphodiesterase inhibitor, isobutylmethylxanthine, which is able to elicit a maximal response by itself.

[2] = tested on: β-adrenergic receptors of guinea pig taenia; conditions: receptors photolyzed with isoproterenol or 2-(2-hydroxy-3-isopropylaminopropoxy) iodobenzene; cited from earlier work
[3] = tested on: cat papillary muscle (β-adrenergic receptors); conditions: cited from earlier work
[4] = tested on: rat atria (β-adrenergic receptors); assay: Isoproterenol-increased tension development in isolated rat atria; assay type: cell-based; conditions: for EC50: Rattus norvegicus, control rat atria, read-out: apparent KAct of isoproterenol
Protocol: (§1) For the tests atrial preparations were obtained by excising hearts from 200-250 g male Wistar rats or 300-400 g male Hartley guinea pigs. All of the animals were pretreated with reserpine (5 mg/kg) administered interperitoneally 15-18 hours before the animals were killed by a blow to the back of the neck. Left atria were maintained at 30° C. […] The buffer was vigorously bubbled with 95% O2 -5% CO2. Atria hooked to platinum-iridium electrodes were stimulated at 1 second intervals with 10 msec monophasic pulses at twice the threshold voltage for contractions. Developed tension was recorded on Beckman oscillographic recorders (Dynographs) and the signals processed by a DEC LSI-11 microcomputer. […] The inhibition is time and dose dependent. […] The cumulative dose response curves to (-)-isoproterenol were determined (n=2-3). At the termination of each experiment, maximum tension was determined by exposing atria to 100 μM isobutylmethylxanthine.

β-adrenergic receptors [5] = target: T1, β-adrenergic receptors (Rattus norvegicus, UniProt P18090); assay: Equilibrium saturation binding of (125I)-iodohydroxybenzylpindolol in treated and washed C6 glioma cells
T1 construct: β-adrenergic receptors in intact living cells; endogenous in cells; host or cells: C6 rat glioma cells, 2B subclone
Description: All washing experiments involving glioma cells utilized this salt solution as the wash medium.
It would be predicted that the occupation of a receptor by a specific ligand should be considered as an effective loss of that receptor provided that the ligand dissociates sufficiently slowly or not at all. […] For all data points, n=3.

[6] = tested on: intracellular cyclic AMP in isoproterenol-treated glioma cells (β-adrenergic receptors); assay: Isoproterenol-stimulated intracellular cyclic AMP accumulation in pretreated, washed C6 glioma cells; assay type: cell-based, rat; conditions: for increase of apparent activation constant for isoproterenol: 40 minutes, then washed 3 hours at 37° C.
Protocol: The ability of the present β-adrenergic receptor blocking compound to function as an effective β-adrenergic blocking agent for the selective elimination of cellular β-adrenergic receptors is apparent from the following study on the interaction of aminobenzylpropranolol with glioma cells and mammalian atrium cells. For the study involving glioma cells, C6 rat glioma cells, 2B subclone were grown in monolayer cultures by the technique described by Terasaki et al, J. Biol. Chem., 253, 5418-5425 in 16 mm plastic cluster dishes. In all experiments, the cells were changed from Ham's F-10 containing 10% fetal bovine serum growth medium to a simple salt medium containing 130 mM NaCl, 4 mM KCl, 0.6 mM MgSO4, 0.3 mM CaCl2, 5 mM sodium phosphate buffer (pH 7.4). All washing experiments involving glioma cells utilized this salt solution as the wash medium. In experiments involving the glioma cells, specific (propranolol-displaceable) binding of (^125 I)-iodohydroxybenzylpindolol to C6 rat glioma cells was performed by the method developed by Terasaki et al (see above reference) with the exception that in all solutions phentolamine was omitted, and at the termination of the radioligand binding reaction, 0.1 mM (±)-propranololwas included in the cell wash solution.
In the study glioma cells were treated for 40 minutes with zero, 0.1 μM (Δ) or 1 μM aminobenzylpropranolol and then washed with salt solution for 3 hours at 37° C. After washing, the cells were treated for 20 minutes with ((-)-isoproterenol) and extracted with HCl to determine the amount of cyclic AMP. For all data points, n=3.

[7] = tested on: guinea pig atria (β-adrenergic receptors); assay: Isoproterenol-increased tension development in isolated guinea pig atria; assay type: cell-based; conditions: for shift in cumulative isoproterenol dose response curve: guinea pig atria
Protocol: as §1

β-adrenergic receptors [8] = target: T1, β-adrenergic receptors; assay: Displacement of specific (125I)-iodohydroxybenzylpindolol binding, acute or after washing, in intact C6 rat glioma cells
Protocol: For the study involving glioma cells, C6 rat glioma cells, 2B subclone were grown in monolayer cultures by the technique described by Terasaki et al, J. Biol. Chem., 253, 5418-5425 in 16 mm plastic cluster dishes. In all experiments, the cells were changed from Ham's F-10 containing 10% fetal bovine serum growth medium to a simple salt medium containing 130 mM NaCl, 4 mM KCl, 0.6 mM MgSO4, 0.3 mM CaCl2, 5 mM sodium phosphate buffer (pH 7.4). All washing experiments involving glioma cells utilized this salt solution as the wash medium.
In other test plates, the cells were pretreated with aminobenzylpropranolol blocking agent and then washed repeatedly over a period of 3 hours at 37° C. before determination of [^125 I]-iodohydroxybenzylpindolol binding. For all points, n=3, which means that each data point is an average of three separate determinations. […] (This value was corrected for competition by (^125 I)-iodohydroxybenzylpindolol).

guinea pig atria = assay: Positive inotropic response of isolated guinea pig atria to histamine; assay type: cell-based; conditions: guinea pig atria pretreated with aminobenzylpropranolol
Protocol: Experiments were also conducted to determine the extent of aminobenzylpropranolol antagonism to isoproterenol-stimulated contractility in isolated atria. For the tests atrial preparations were obtained by excising hearts from 200-250 g male Wistar rats or 300-400 g male Hartley guinea pigs. All of the animals were pretreated with reserpine (5 mg/kg) administered interperitoneally 15-18 hours before the animals were killed by a blow to the back of the neck. Left atria were maintained at 30° C. (pH 7.4) in buffer containing: 118 mM NaCl, 4.75 mM KCl, 1.2 mM KH2 PO4, 1.2 mM MgSO4, 5.5 mM dextrose, 25 mM NaHCO3, and 1 mM CaCl2. The buffer was vigorously bubbled with 95% O2 -5% CO2. Atria hooked to platinum-iridium electrodes were stimulated at 1 second intervals with 10 msec monophasic pulses at twice the threshold voltage for contractions. Developed tension was recorded on Beckman oscillographic recorders (Dynographs) and the signals processed by a DEC LSI-11 microcomputer.
FIG. 4 contains the cumulative dose response curves to histamine treated atria (n=2-3).

[9] = blocked by N-[2-hydroxy-3-(1-naphthoxy)-propyl]-N-bromoacetylethylenediamine
[10] = 1 μM for 50 minutes prior to washing

T1 sequence (P18090 whole entry): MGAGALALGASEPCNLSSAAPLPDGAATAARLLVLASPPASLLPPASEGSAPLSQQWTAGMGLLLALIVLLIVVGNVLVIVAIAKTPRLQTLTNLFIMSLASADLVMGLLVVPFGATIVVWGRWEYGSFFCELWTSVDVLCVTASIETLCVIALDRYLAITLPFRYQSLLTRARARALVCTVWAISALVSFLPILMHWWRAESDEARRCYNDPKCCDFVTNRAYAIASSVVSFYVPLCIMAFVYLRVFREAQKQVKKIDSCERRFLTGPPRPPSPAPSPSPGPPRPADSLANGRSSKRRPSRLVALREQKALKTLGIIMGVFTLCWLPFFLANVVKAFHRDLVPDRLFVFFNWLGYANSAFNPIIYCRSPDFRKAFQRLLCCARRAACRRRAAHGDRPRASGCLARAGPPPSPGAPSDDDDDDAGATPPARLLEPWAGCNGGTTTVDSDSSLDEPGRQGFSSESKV

Molecule: CC(C)Cn1c(=O)n(C)c(=O)c2[nH]cnc21 [isobutylmethylxanthine, reference compound]
- increase in developed tension ([1]; 100 μM isobutylmethylxanthine added to atria treated with 10 μM isoproterenol): less than 5%

Molecule: CC(C)NCC(O)c1ccc(O)c(O)c1 (stereo not shown) [isoproterenol, N-isopropylnoradrenaline, reference compound]
- effect on tension in absence of inhibitor ([1]; 0.1 μM isoproterenol): maximally effective
- desensitization on multiple exposures (decrease in potency for isoproterenol) ([1]; control atria, not pretreated with the inhibitor): small degree of desensitization
- maximal relaxation by isoproterenol in photolyzed tissue [2]: maximal relaxation could still be elicited
- potency of isoproterenol in photolyzed tissue [2]: potency was decreased
- inotropic and cyclic AMP responses to isoproterenol after irreversible block [3, 9]: maximal
- potency of isoproterenol after irreversible block [3, 9]: decreased potency
- EC50 ([4]; first dose response curve): 0.9 nM
- EC50 ([4]; second dose response curve): 4.7 nM

Molecule: N-[2-hydroxy-3-(1-naphthoxy)-propyl]-N-bromoacetylethylenediamine
- block of receptors ([3]; cat papillary muscle): irreversibly blocked

Molecule: CC(C)(Cc1ccc(N)cc1)NCC(O)COc1cccc2ccccc12 (stereo not drawn) [aminobenzylpropranolol, 1-(p-amino-α,α-dimethylphenethylamino)-3-(1-naphthoxy)-2-propanol]
- sensitivity to isoproterenol of treated atria ([1]; 0.1 μM or 10 μM pretreatment, washed five times): decreased sensitivity to isoproterenol
- inhibitory activity in medium transferred from treated, washed atrium to fresh atrium ([1]; after washing): no inhibitory activity
- efficacy (maximum response) of isoproterenol in treated atria ([1]; aminobenzylpropranolol-treated atria): unchanged
- reversal of blockage by high concentrations of isoproterenol ([1]; multiple washes and rechallenges): did not reverse the blockage
- maximal level of tension development ([1]; pretreated with 0.1 μM isoproterenol, washed, then 10 μM aminobenzylpropranolol): remained the same
- effect on affinity of the remaining receptors for (125I)-iodohydroxybenzylpindolol (β-adrenergic receptors [5]; 80 nM, 40 minutes (37° C.), washed for 3 hours): not accomplished by a change in the affinity
- inhibition at 0.08 µM (β-adrenergic receptors [5]; 40 min, 80 nM, 40 minutes (37° C.), washed for 3 hours, read-out: maximum binding capacity diminished): 70%
- maximum receptor binding (FIG. 2) (β-adrenergic receptors [5]; treated then washed with salt solution): marked reduction
- maximal attainable level of intracellular cyclic AMP ([6]; 0.1 μM and 1 μM): no change
- increase of apparent activation constant for isoproterenol ([6]; 0.1 μM): 0.4 log units
- increase of apparent activation constant for isoproterenol ([6]; 1 μM): 1.1 log units
- increases in intracellular cyclic AMP in isoproterenol-treated glioma cells ([6]; only at submaximal concentrations of the catecholamine): inhibited
- shift in cumulative isoproterenol dose response curve ([7]; 0.1 μM for 1 hour): 0.5 log
- shift in cumulative isoproterenol dose response curve ([7]; 10 μM for 1 hour): 2 log
- isoproterenol-increased tension development ([7]; time and dose dependent): inhibits
- shift in cumulative isoproterenol dose response curve ([4]; 0.1 μM for 1 hour, rat atria): 0.5 log
- fold increase in apparent KAct for isoproterenol ([4]; 1 μM for 5 minutes prior to washing): 1.2 fold
- fold increase in apparent KAct for isoproterenol ([4]; 1 μM for 20 minutes prior to washing): 5.2 fold
- fold increase in apparent KAct for isoproterenol [4, 10]: 13.5 fold
- increase in apparent KAct for isoproterenol [4, 10]: 1.1 log units
- rightward shift of isoproterenol dose response curves ([4]; 3 μM for 1 hour, washed 17 hours, 30° C.): 1.5 log units
- decrease in inhibition of the isoproterenol response on extended washing ([4]; 3 μM for 1 hour, washed 17 hours, vs parallel washed control tissues): no detectable decrease
- shift in cumulative isoproterenol dose response curve ([4]; 10 μM for 1 hour, rat atria): 2 log
- onset of the inhibitory action ([4]; rat atria): slow
- isoproterenol-increased tension development ([4]; time and dose dependent): inhibits
- Kd (β-adrenergic receptors [8]; 40 min at 37° C., corrected for competition by (125I)-iodohydroxybenzylpindolol, read-out: apparent KD in blocking one-half of the β-receptors): 8 nM
- antagonist potency, displacing (125I)-iodohydroxybenzylpindolol from β-adrenergic receptors (β-adrenergic receptors [8]; intact living glioma cells): relatively potent β-adrenergic antagonist
- ability to block β-adrenergic receptors assayed acutely (vs after washing) (β-adrenergic receptors [8]; washed repeatedly over 3 hours at 37° C.): no significant difference
- positive inotropic response to histamine (guinea pig atria): unaltered

Molecule: CC(C)(Cc1ccc(O)c(I)c1)NCC(O)COc1cccc2[nH]ccc12 (stereo not shown) [(^125 I)-iodohydroxybenzylpindolol, reference compound]
- Kd (β-adrenergic receptors [5]; glioma cells, not different between treated and control, read-out: equilibrium dissociation constant (KD) for (125I)-iodohydroxybenzylpindolol): 0.06 nM
